Data published in ChEMBL document CHEMBL3885861, “Open TG-GATES”.

Species: Rattus norvegicus
Assay: Open TG-GATES - Regimen: Single
Assay type: toxicity, organism-based, Sprague-Dawley
Design: regimen Single, gender Male, age 6 weeks
Conditions: in vivo, po, route gavage; for TP / gamma-GTP / ALP / AST / CRE / DBIL / IP / K / LDH / Na / RALB / TBIL / TC / TG / ALT: tissue Plasma; for KIDNEY_L / KIDNEY_R / KIDNEY_TOTAL: tissue Kidney
[1] = 30 mg/kg, 3 h, dose level Middle
[2] = 30 mg/kg, 3 h, tissue Blood, dose level Middle
[3] = 30 mg/kg, 6 h, dose level Middle
[4] = 30 mg/kg, 6 h, tissue Blood, dose level Middle
[5] = 30 mg/kg, 9 h, dose level Middle
[6] = 30 mg/kg, 9 h, tissue Blood, dose level Middle
[7] = 30 mg/kg, 24 h, dose level Middle
[8] = 30 mg/kg, 24 h, tissue Blood, dose level Middle

Structure (SMILES): Cc1cnc(NC(=O)C2=C(O)c3ccccc3S(=O)(=O)N2C)s1 [MELOXICAM]
- TP (10 mg/kg, 24 h, dose level Low): 5.4 g/dL
- gamma-GTP (10 mg/kg, 24 h, dose level Low): 1 IU/L
- TERMINAL_BW [1]: 226 g
- Bas [2]: 1%
- Eos [2]: 0.8%
- Fbg [2]: 212 mg/dL
- Hb [2]: 13.3 g/dL
- Lym [2]: 79.6%
- MCH [2]: 21 pg
- MCHC [2]: 33.5%
- MCV [2]: 62.7 fL
- Mono [2]: 2.4%
- Neu [2]: 16.4%
- PT [2]: 12 s
- RBC [2]: 636.4 x10_4/ul
- Ret [2]: 7%
- KIDNEY_L [1]: 1 g
- KIDNEY_R [1]: 1 g
- KIDNEY_TOTAL [1]: 2.1 g
- ALP [1]: 811 IU/L
- AST [1]: 65.6 IU/L
- CRE [1]: 0.4 mg/dL
- DBIL [1]: 0.07 mg/dL
- IP [1]: 8.4 mg/dL
- K [1]: 4.1 meq/L
- LDH [1]: 177.8 IU/L
- Na [1]: 140.6 meq/L
- RALB [1]: 3.2 g/dL
- TBIL [1]: 0.1 mg/dL
- TC [1]: 66 mg/dL
- TG [1]: 66 mg/dL
- TP [1]: 5.3 g/dL
- gamma-GTP [1]: 0.8 IU/L
- TERMINAL_BW [3]: 222.4 g
- Bas [4]: 0.6%
- Eos [4]: 0.8%
- Fbg [4]: 221.6 mg/dL
- Lym [4]: 73.6%
- MCH [4]: 21.8 pg
- MCHC [4]: 33.9%
- MCV [4]: 64.3 fL
- Mono [4]: 3.4%
- Neu [4]: 21.4%
- RBC [4]: 632.8 x10_4/ul
- Ret [4]: 7.2%
- KIDNEY_L [3]: 1 g
- KIDNEY_R [3]: 0.9 g
- KIDNEY_TOTAL [3]: 1.9 g
- ALP [3]: 775.2 IU/L
- ALT [3]: 36.2 IU/L
- AST [3]: 68.6 IU/L
- CRE [3]: 0.4 mg/dL
- DBIL [3]: 0.062 mg/dL
- IP [3]: 9.3 mg/dL
- K [3]: 3.8 meq/L
- LDH [3]: 163.2 IU/L
- Na [3]: 141.2 meq/L
- RALB [3]: 3.4 g/dL
- TBIL [3]: 0.1 mg/dL
- TC [3]: 70.4 mg/dL
- TG [3]: 61.6 mg/dL
- TP [3]: 5.5 g/dL
- gamma-GTP [3]: 1 IU/L
- TERMINAL_BW [5]: 222 g
- APTT [6]: 17.1 s
- Bas [6]: 0.4%
- Eos [6]: 0.8%
- Fbg [6]: 235 mg/dL
- Hb [6]: 13.3 g/dL
- Lym [6]: 72%
- MCH [6]: 21.8 pg
- MCHC [6]: 34.2%
- MCV [6]: 63.8 fL
- Mono [6]: 3.8%
- Neu [6]: 22.2%
- PT [6]: 12.5 s
- RBC [6]: 612.6 x10_4/ul
- Ret [6]: 7%
- WBC [6]: 110.9 x10_2/uL
- KIDNEY_L [5]: 1 g
- KIDNEY_R [5]: 1 g
- KIDNEY_TOTAL [5]: 2 g
- ALP [5]: 861.8 IU/L
- ALT [5]: 34 IU/L
- AST [5]: 62.8 IU/L
- CRE [5]: 0.4 mg/dL
- DBIL [5]: 0.06 mg/dL
- IP [5]: 9.6 mg/dL
- K [5]: 4.1 meq/L
- LDH [5]: 170.2 IU/L
- Na [5]: 141.8 meq/L
- RALB [5]: 3.2 g/dL
- TBIL [5]: 0.1 mg/dL
- TC [5]: 64 mg/dL
- TG [5]: 44.4 mg/dL
- TP [5]: 5.3 g/dL
- gamma-GTP [5]: 1 IU/L
- TERMINAL_BW [7]: 240.1 g
- Bas [8]: 0.6%
- Eos [8]: 0.8%
- Fbg [8]: 243.4 mg/dL
- Lym [8]: 68%
- MCH [8]: 21.8 pg
- MCHC [8]: 33.7%
- MCV [8]: 64.6 fL
- Mono [8]: 3.8%
- Neu [8]: 26.4%
- PT [8]: 11.6 s
- RBC [8]: 609 x10_4/ul
- Ret [8]: 6.8%
- WBC [8]: 132.5 x10_2/uL
- KIDNEY_L [7]: 1.1 g
- KIDNEY_R [7]: 1.1 g
- KIDNEY_TOTAL [7]: 2.1 g
- ALT [7]: 38.4 IU/L
- AST [7]: 69.6 IU/L
- CRE [7]: 0.4 mg/dL
- DBIL [7]: 0.098 mg/dL
- IP [7]: 7.8 mg/dL
- K [7]: 3.9 meq/L
- LDH [7]: 207 IU/L
- Na [7]: 142.8 meq/L
- RALB [7]: 3.3 g/dL
- TBIL [7]: 0.2 mg/dL
- TC [7]: 72.2 mg/dL
- TG [7]: 108 mg/dL
- TP [7]: 5.4 g/dL
- gamma-GTP [7]: 1 IU/L
- TERMINAL_BW (100 mg/kg, 3 h, dose level High): 226.7 g
